Measured values from patent US11279733B2, “Peptide antibiotics” (priority 2017, dated 2022).

System: bacterial strains
Assay: Potentiation/synergy antimicrobial assay (checkerboard, FICI) with antibiotics
Type: cell-based
Details: GN_181 E. coli mcr-1
Description: Potentiation/synergy antimicrobial assays were conducted in the same manner as the standard MICs described above, with the following modifications. Assays were performed in 384-well non-binding surface plates (NBS; Corning 3460) and in Cation-adjusted Mueller Hinton Broth (CA-MHB; BD, Cat. No. 212322) with a final assay volume of 50 μL once bacteria was added at 5×10^5 CFU/mL. Antibiotics and octapeptin compounds were plated in duplicate as a 2-fold concentration series, in a matrix checkerboard format. The bacterial cell density of the resultant assay plates after 18-20 h incubation at 37° C. was read by optical density 600 nm (OD600) using a Tecan M1000 Pro Spectrophotometer, and analysed for ≥90% growth inhibition compared to the growth control to determine active concentrations. Synergistic effect was calculated based on the fractional inhibitory concentration index (FICI) by the following equation, where synergy is deemed FICI 0.5: […]

- MIC of antibiotic with OctC4 at concn 0 (OctC4 0 μg/mL): >32 µg/mL
- MIC of antibiotic with OctC4 at concn 0.03 (OctC4 0.03 μg/mL): 8 µg/mL
- MIC of antibiotic with OctC4 at concn 0.0625 (OctC4 0.0625 μg/mL): 4 µg/mL
- MIC of antibiotic with OctC4 at concn 0.125 (OctC4 0.125 μg/mL): 4 µg/mL
- MIC of antibiotic with OctC4 at concn 0.25 (OctC4 0.25 μg/mL): 0.25 µg/mL
SMILES: CC(=O)NC[C@H]1CN(c2ccc(N3CCOCC3)c(F)c2)C(=O)O1 [Linezolid, linezolid]
